Usually Ki stands for a measure of affinity in units of concentration, obtained from inhibition or displacement.

Ki data for 32 compounds are collected here from patent US10844032B2, “Substituted benzofuran, benzothiophene and indole Mcl-1 inhibitors” (Vanderbilt University, priority 2012, dated 2020).

Chain of recombinant Mcl-1 (residues 172-327) (Q07820 172-327): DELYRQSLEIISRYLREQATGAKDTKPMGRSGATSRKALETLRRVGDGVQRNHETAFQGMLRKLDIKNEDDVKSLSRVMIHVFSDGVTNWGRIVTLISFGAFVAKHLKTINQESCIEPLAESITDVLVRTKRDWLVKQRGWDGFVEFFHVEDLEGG

This assay has as its target recombinant Mcl-1 (residues 172-327) (Homo sapiens (Human), UniProt Q07820). The experiment in a line: Bak peptide fluorescence polarization anisotropy competition assay, Mcl-1. Conditions: read-out: Ki for inhibition of Mcl-1. The format is binding. In general terms: Fluorescence polarisation rises when a labelled molecule tumbles more slowly, as on binding a larger partner.
Consider `Cc1cc(OCCCc2c(C(=O)NS(=O)(=O)c3cccnc3)[nH]c3ccccc23)cc(C)c1Cl` [Example 133, 3-(3-(4-chloro-3,5-dimethylphenoxy)propyl)-N-(pyridin-3-ylsulfonyl)-1H-indole-2-carboxamide], for which the Ki is 301 to 500 nM.

For `Cc1cc(OCCCc2c(C(=O)NS(=O)(=O)c3ccncc3)[nH]c3ccccc23)cc(C)c1Cl` [Example 134, 3-(3-(4-chloro-3,5-dimethylphenoxy)propyl)-N-(pyridin-4-ylsulfonyl)-1H-indole-2-carboxamide], the Ki fell in the range of 301 to 500 nM.

Regarding `Cc1cc(OCCCc2c(C(=O)NS(=O)(=O)c3ccnc(Cl)c3)[nH]c3ccccc23)cc(C)c1Cl` [Example 135, 3-(3-(4-chloro-3,5-dimethylphenoxy)propyl)-N-((2-chloropyridin-4-yl)sulfonyl)-1H-indole-2-carboxamide], the Ki fell in the range of 301 to 500 nM.

For the compound `Cc1cc(OCCCc2c(C(=O)NS(=O)(=O)c3ccc(OCc4ccccc4)cc3)[nH]c3ccccc23)cc(C)c1Cl` [Example 136, N-((4-(benzyloxy)phenyl)sulfonyl)-3-(3-(4-chloro-3,5-dimethylphenoxy)propyl)-1H-indole-2-carboxamide], the Ki fell in the range of 101 to 299 nM.

Consider `Cc1ccccc1S(=O)(=O)NC(=O)c1[nH]c2ccccc2c1CCCOc1cc(C)c(Cl)c(C)c1` [Example 137, 3-(3-(4-chloro-3,5-dimethylphenoxy)propyl)-N-(o-tolylsulfonyl)-1H-indole-2-carboxamide], for which the Ki lay in the range of 101 to 299 nM.

For `COc1ccc(S(=O)(=O)NC(=O)c2[nH]c3ccccc3c2CCCOc2cc(C)c(Cl)c(C)c2)c(OC)c1` [Example 138, 3-(3-(4-chloro-3,5-dimethylphenoxy)propyl)-N-((2,4-dimethoxyphenyl)sulfonyl)-1H-indole-2-carboxamide], the Ki was 301 to 500 nM.

Turning to `Cc1cc(OCCCc2c(C(=O)NS(=O)(=O)c3ccc(-c4ccccc4)cc3)[nH]c3ccccc23)cc(C)c1Cl` [Example 139, N-([1,1′-biphenyl]-4-ylsulfonyl)-3-(3-(4-chloro-3,5-dimethylphenoxy)propyl)-1H-indole-2-carboxamide], the Ki lay within 301 to 500 nM.

Take `Cc1cc(OCCCc2c(C(=O)NS(=O)(=O)CCc3ccccc3)[nH]c3ccccc23)cc(C)c1Cl` [Example 140, 3-(3-(4-chloro-3,5-dimethylphenoxy)propyl)-N-(phenethylsulfonyl)-1H-indole-2-carboxamide]: the Ki lay within 501 to 999 nM.

On to `Cc1cc(OCCCc2c(C(=O)NS(=O)(=O)CCOc3ccccc3)[nH]c3ccccc23)cc(C)c1Cl` [Example 141, 3-(3-(4-chloro-3,5-dimethylphenoxy)propyl)-N-((2-phenoxyethyl)sulfonyl)-1H-indole-2-carboxamide], for which the Ki lay within 301 to 500 nM.

Take `COc1ccc(Oc2cccc(S(=O)(=O)NC(=O)c3[nH]c4ccccc4c3CCCOc3cc(C)c(Cl)c(C)c3)c2)cc1` [Example 142, 3-(3-(4-chloro-3,5-dimethylphenoxy)propyl)-N-((3-(4-methoxyphenoxy)phenyl)sulfonyl)-1H-indole-2-carboxamide]: the Ki is 301 to 500 nM.

Turning to `CCOc1ccc(Oc2ccc(S(=O)(=O)NC(=O)c3[nH]c4ccccc4c3CCCOc3cc(C)c(Cl)c(C)c3)cc2)cc1` [Example 143, 3-(3-(4-chloro-3,5-dimethylphenoxy)propyl)-N-((4-(4-ethoxyphenoxy)phenyl)sulfonyl)-1H-indole-2-carboxamide], the Ki is 301 to 500 nM.

With `Cc1cc(OCCCc2c(C(=O)NS(=O)(=O)c3ccc(OCc4ccccc4)nc3)[nH]c3ccccc23)cc(C)c1Cl` [Example 144, N-((6-(benzyloxy)pyridin-3-yl)sulfonyl)-3-(3-(4-chloro-3,5-dimethylphenoxy)propyl)-1H-indole-2-carboxamide], the Ki was 301 to 500 nM.

Take `Cc1cc(OCCCc2c(C(=O)NS(=O)(=O)CCCNC3CCCCC3)[nH]c3ccccc23)cc(C)c1Cl` [Example 145, 3-(3-(4-chloro-3,5-dimethylphenoxy)propyl)-N-((3-(cyclohexylamino)propyl)sulfonyl)-1H-indole-2-carboxamide]: the Ki lay in the range of 1000 to 9990 nM.

For the compound `Cc1cc(OCCCc2c(C(=O)NS(=O)(=O)CCNS(=O)(=O)c3ccccc3)[nH]c3ccccc23)cc(C)c1Cl` [Example 146, 3-(3-(4-chloro-3,5-dimethylphenoxy)propyl)-N-((2-(phenylsulfonamido)ethyl)sulfonyl)-1H-indole-2-carboxamide], the Ki fell in the range of 101 to 299 nM.

Regarding `COc1ccc(S(=O)(=O)NCCS(=O)(=O)NC(=O)c2[nH]c3ccccc3c2CCCOc2cc(C)c(Cl)c(C)c2)cc1` [Example 147, 3-(3-(4-chloro-3,5-dimethylphenoxy)propyl)-N-((2-(4-methoxyphenylsulfonamido)ethyl)sulfonyl)-1H-indole-2-carboxamide], the Ki lay within 301 to 500 nM.

On to `Cc1cc(OCCCc2c(C(=O)NS(=O)(=O)CCNS(=O)(=O)c3ccc(Cl)c(Cl)c3)[nH]c3ccccc23)cc(C)c1Cl` [Example 148, 3-(3-(4-chloro-3,5-dimethylphenoxy)propyl)-N-((2-(3,4-dichlorophenylsulfonamido)ethyl)sulfonyl)-1H-indole-2-carboxamide], for which the Ki was 101 to 299 nM.

For `Cc1cc(OCCCc2c(C(=O)NS(=O)(=O)CCNS(=O)(=O)C3CCCCC3)[nH]c3ccccc23)cc(C)c1Cl` [Example 149, 3-(3-(4-chloro-3,5-dimethylphenoxy)propyl)-N-((2-(cyclohexanesulfonamido)ethyl)sulfonyl)-1H-indole-2-carboxamide], the Ki was 101 to 299 nM.

As for `Cc1cc(OCCCc2c(C(=O)NS(=O)(=O)CCNC(=O)C3CCCCC3)[nH]c3ccccc23)cc(C)c1Cl` [Example 150, 3-(3-(4-chloro-3,5-dimethylphenoxy)propyl)-N-((2-(cyclohexanecarboxamido)ethyl)sulfonyl)-1H-indole-2-carboxamide], the Ki was 101 to 299 nM.

With `Cc1cc(OCCCc2c(C(=O)NS(=O)(=O)CCNC(=O)c3ccoc3C)[nH]c3ccccc23)cc(C)c1Cl` [Example 151, 3-(3-(4-chloro-3,5-dimethylphenoxy)propyl)-N-((2-(2-methylfuran-3-carboxamido)ethyl)sulfonyl)-1H-indole-2-carboxamide], the Ki is 101 to 299 nM.

Turning to `Cc1cc(OCCCc2c(C(=O)NS(=O)(=O)CCNC(=O)CC3CCCCC3)[nH]c3ccccc23)cc(C)c1Cl` [Example 152, 3-(3-(4-chloro-3,5-dimethylphenoxy)propyl)-N-((2-(2-cyclohexylacetamido)ethyl)sulfonyl)-1H-indole-2-carboxamide], the Ki lay in the range of 1000 to 9990 nM.

Regarding `Cc1cc(OCCCc2c(C(=O)NS(=O)(=O)CCNC(=O)c3ccncc3)[nH]c3ccccc23)cc(C)c1Cl` [Example 153, 3-(3-(4-chloro-3,5-dimethylphenoxy)propyl)-N-((2-(isonicotinamido)ethyl)sulfonyl)-1H-indole-2-carboxamide], the Ki was 1000 to 9990 nM.

Take `Cc1cc(OCCCc2c(C(=O)NS(=O)(=O)CCNC(=O)c3ccno3)[nH]c3ccccc23)cc(C)c1Cl` [Example 154, N-(2-(N-(3-(3-(4-chloro-3,5-dimethylphenoxy)propyl)-1H-indole-2-carbonyl)sulfamoyl)ethyl)isoxazole-5-carboxamide]: the Ki lay within 501 to 999 nM.

In the case of `Cc1cc(OCCCc2c(C(=O)NS(=O)(=O)CCNC(=O)c3cccnc3)[nH]c3ccccc23)cc(C)c1Cl` [Example 155, 3-(3-(4-chloro-3,5-dimethylphenoxy)propyl)-N-((2-(nicotinamido)ethyl)sulfonyl)-1H-indole-2-carboxamide], the Ki was in the range of 1000 to 9990 nM.

For `Cc1ccoc1C(=O)NCCS(=O)(=O)NC(=O)c1[nH]c2ccccc2c1CCCOc1cc(C)c(Cl)c(C)c1` [Example 156], the Ki fell in the range of 501 to 999 nM.

For the compound `Cc1ccc(C(=O)NCCS(=O)(=O)NC(=O)c2[nH]c3ccccc3c2CCCOc2cc(C)c(Cl)c(C)c2)o1` [Example 157, 3-(3-(4-chloro-3,5-dimethylphenoxy)propyl)-N-((2-(5-methylfuran-2-carboxamido)ethyl)sulfonyl)-1H-indole-2-carboxamide], the Ki was 101 to 299 nM.

Turning to `Cc1cc(OCCCc2c(C(=O)NS(=O)(=O)CCNC(=O)c3ccoc3)[nH]c3ccccc23)cc(C)c1Cl` [Example 158, 3-(3-(4-chloro-3,5-dimethylphenoxy)propyl)-N-((2-(furan-3-carboxamido)ethyl)sulfonyl)-1H-indole-2-carboxamide], the Ki fell in the range of 101 to 299 nM.

Turning to `Cc1cc(C(=O)NCCS(=O)(=O)NC(=O)c2[nH]c3ccccc3c2CCCOc2cc(C)c(Cl)c(C)c2)c(C)o1` [Example 159, 3-(3-(4-chloro-3,5-dimethylphenoxy)propyl)-N-((2-(2,5-dimethylfuran-3-carboxamido)ethyl)sulfonyl)-1H-indole-2-carboxamide], the Ki was in the range of 101 to 299 nM.

For `Cc1cc(OCCCc2c(C(=O)NS(=O)(=O)CCNC(=O)c3ccccc3F)[nH]c3ccccc23)cc(C)c1Cl` [Example 160, 3-(3-(4-chloro-3,5-dimethylphenoxy)propyl)-N-((2-(2-fluorobenzamido)ethyl)sulfonyl)-1H-indole-2-carboxamide], the Ki fell in the range of 301 to 500 nM.

On to `Cc1cc(OCCCc2c(C(=O)NS(=O)(=O)CCNC(=O)c3ccccc3)[nH]c3ccccc23)cc(C)c1Cl` [Example 161, N-((2-benzamidoethyl)sulfonyl)-3-(3-(4-chloro-3,5-dimethylphenoxy)propyl)-1H-indole-2-carboxamide], for which the Ki lay in the range of 301 to 500 nM.

As to `Cc1cc(OCCCc2c(C(=O)NS(=O)(=O)CCNC(=O)c3ccc4ccccc4c3)[nH]c3ccccc23)cc(C)c1Cl` [Example 162, N-((2-(2-naphthamido)ethyl)sulfonyl)-3-(3-(4-chloro-3,5-dimethylphenoxy)propyl)-1H-indole-2-carboxamide], the Ki lay in the range of 301 to 500 nM.

Turning to `Cc1cc(OCCCc2c(C(=O)NS(=O)(=O)CCNC(=O)/C=C/c3ccccc3)[nH]c3ccccc23)cc(C)c1Cl` [Example 163, (E)-3-(3-(4-chloro-3,5-dimethylphenoxy)propyl)-N-((2-cinnamamidoethyl)sulfonyl)-1H-indole-2-carboxamide], the Ki lay in the range of 101 to 299 nM.

In the case of `Cc1cc(OCCCc2c(C(=O)NS(=O)(=O)CCNC(=O)CCc3ccccc3)[nH]c3ccccc23)cc(C)c1Cl` [Example 164, 3-(3-(4-chloro-3,5-dimethylphenoxy)propyl)-N-((2-(3-phenylpropanamido)ethyl)sulfonyl)-1H-indole-2-carboxamide], the Ki lay within 101 to 299 nM.
